In turn, `CCCC(=O)C1=C(O)CC(c2cc(C3CCCO3)no2)CC1=O` (centres undefined) showed a melting point of 102 to 104 °C.

`CC(=O)NC[C@H]1CN(c2ccc(N3CCS(=O)(=O)CC3)c(F)c2)C(=O)O1` returned a melting point of 202 to 203 °C.

Regarding `Cc1nc(N2CCN(Cc3ccccc3)C2=O)sc1C(=O)NCc1cc(F)ccc1F`, the melting point was in the range of 176 to 177 °C.

`CS(=O)(=O)c1ccc(-c2cnn(Cc3ccc(Cl)s3)c(=O)c2-c2ccc(F)cc2)cc1` registered a melting point of 139 to 141 °C.

Consider `CC1CCCN(c2c(Br)cc3c4c(cccc24)C(=O)N(O)C3=O)C1` (centres undefined), for which the melting point was over 250 °C.

The molecule `CCOC(=O)C(Oc1ccc(Cl)cc1)C(C)C` (centres undefined) returned a melting point of 88 to 91 °C.

`O=C1CCCc2nc(N3CCN(Cc4ccccc4)CC3)ncc2N1`: the melting point came to 211 °C.

`CC1(C)NC(=O)Oc2ccc(OCc3ccccc3)cc21` registered a melting point of 134 °C.

For the molecule `O=C(O)CCCCCn1nnnc1S`, the melting point worked out at 100 °C.

Turning to `CNC(=O)[C@@H](N)Cc1ccc(OC)cc1`, the melting point fell in the range of 90 to 91 °C.

On to `COc1ccc(C(=O)Sc2ccc(C(=O)O)cc2)cc1C12CC3CC(CC(C3)C1)C2`, for which the melting point worked out at 264 °C.

`COc1cc(Cl)c(C(=O)c2ccccc2F)c(OC)c1` yielded a melting point of 88 to 92 °C.

As to `CNc1nc(C)c(C(C)=O)s1`, the melting point lay in the range of 164 to 165 °C.

Turning to `O=C(C1CC1)N1CCc2cc(S(=O)(=O)N3CCN(c4cccc(Cl)c4)CC3)ccc21`, the melting point was 162 to 163 °C.

For the molecule `C=CCC(CO)C(O)c1cccnc1` (centres undefined), the melting point was in the range of 112 to 113 °C.

Consider `COc1ccccc1CP(C)(=O)C1CCCCC1` (centres undefined), for which the melting point is 108 to 110 °C.

In turn, `CC(C)Oc1nsc(N)c1C#N` returned a melting point of 146 to 148 °C.

Molecule `CC(C(=O)O)c1ccc2cc(OCC=C(Cl)Cl)ccc2c1` (centres undefined) had a melting point of 107 to 109 °C.

On to `COc1ccccc1-c1nc2cc(C)ccc2c(=O)[nH]1`, for which the melting point is 165 to 170 °C.

The molecule `Cc1nnc2c(-c3ccccn3)cccn12` yielded a melting point of 142 to 143 °C.

Molecule `CN(C)C(=O)c1ccc(NS(C)(=O)=O)c(Oc2ccc(F)cc2F)c1` yielded a melting point of 165 to 167 °C.

As to `CNC(=O)c1ccc(F)c2c1CC(N(CCCc1c[nH]c3ccc(F)cc13)C1CCC1)CO2` (centres undefined), the melting point amounted to 132 °C.

As for `CCCOc1ccc(-c2cc(C)cn2-c2ccc(S(N)(=O)=O)cc2)cc1`, the melting point is 142 to 145 °C.

Turning to `Clc1cccc2c1CCCC2c1c[nH]cn1` (centres undefined), the melting point fell in the range of 165 to 169 °C.

`Cc1c(NCC(C)(C)NC(=O)OC(C)(C)C)c([N+](=O)[O-])c2nnnn2c1C`: the melting point is 153 to 155 °C.

On to `CCCCCCCCCCCCS(=O)CCOc1ccc(CCC(=O)C(F)(F)F)cc1` (centres undefined), for which the melting point was 98 to 100 °C.

Regarding `CN(Cc1cc2c(=O)c(C(=O)NCc3ccc(Cl)cc3)cn(C)c2o1)CC(O)c1cccnc1` (centres undefined), the melting point is 145 to 149 °C.

Regarding `Cc1ccccc1-c1cccc(/C=C/C(=O)Nc2ccc(CN3CCCCC3)cc2)c1`, the melting point was in the range of 185 to 187 °C.

Molecule `COc1ccc(C=O)cc1-n1nnnc1C` came in with a melting point of 157 °C.

Take `O=[N+]([O-])c1ccc(Oc2ccc(C(F)(F)F)cn2)cc1NCP(=O)(O)O`: the melting point came out at 94 °C.

`CCN1CCC(OC)(c2cccc(F)c2F)C1` (single isomer, unassigned; (+)): the melting point lay within 104 to 106 °C.

As for `O=C/C=C/c1ccc(C(F)(F)F)cc1`, the melting point is 60 to 61 °C.

In turn, `COC(=O)c1nc2cc(C)ccc2c(O)c1C(=O)OC` registered a melting point of 209 to 211 °C.

Take `Clc1ccc2sc(=Nc3ccccc3)sc2c1`: the melting point lay in the range of 71 to 73 °C.

Molecule `C[C@@H]1CN(C(=O)[C@@](C)(O)C(F)(F)F)[C@@H](C)CN1S(=O)(=O)c1ccc(C(=O)O)cc1` returned a melting point of 194 to 196 °C.

Molecule `CC(=O)c1cc(N2CCCC2)ccc1NC(=O)c1cccc(OCc2ccccc2)c1` yielded a melting point of 131 to 133 °C.

On to `CC(C)(C)OC(=O)COc1ccc(NC(=O)NC(=O)c2ccc(C(N)=S)nc2)cc1`, for which the melting point lay in the range of 248 to 249 °C.

For the molecule `O=C(CO)N1CCN(c2ccc(Nc3cc(-c4cnc5cc[nH]c5c4)cn4ccnc34)nc2)CC1`, the melting point was in the range of 218 to 220 °C.

`CC=CC(O)c1c(C(C)C)nc(C(C)C)c(CCCCC)c1-c1ccc(F)cc1` (centres undefined): the melting point is 70 to 72 °C.

Turning to `COCOc1c(-c2cccc(C=CC(=O)O)c2)ccc2c1C(C)(C)CCC2(C)C`, the melting point lay within 188 to 189 °C.

In turn, `COC(=O)[C@@H]1CCCN1S(=O)(=O)c1ccc(C)c(COc2cccc3c(C)cc(C)nc23)c1C` yielded a melting point of 50 °C.

In the case of `CC(C)Oc1cc(CCCOc2cc(CCC(=O)O)n(C)n2)cc(COc2ccc(Cl)cc2Cl)c1`, the melting point was in the range of 116 to 120 °C.

The molecule `CCOC(=O)c1ccccc1C=C(C)C=CC=C(C)CCC=C(C)C` showed a melting point of 47 to 48 °C.

The molecule `O=C(Nc1ccc(-c2c[nH]c(=O)cn2)cc1)c1ccccc1` displayed a melting point of over 300 °C.

For the molecule `Cn1nc(-c2cccc(-n3ncc4cc(C(C)(C)C)cc(F)c4c3=O)c2CO)cc(Nc2cnc(C(F)(F)F)cn2)c1=O`, the melting point fell in the range of 250 to 254 °C.

`Cc1[nH]c2ccnn2c(=O)c1CCO` showed a melting point of 225 to 226 °C.

The molecule `C[C@@H]1C[C@](C)(O)[C@H](C)N1c1ccc(C#N)c(C(F)(F)F)c1` had a melting point of 115 to 117 °C.

Molecule `O=Cc1ccc(-c2cnn(-c3ccc(OC(F)(F)F)cc3)c2)cc1` displayed a melting point of 107 to 109 °C.

`Cc1cc(C)cc(COC(=O)[C@H](Cc2ccc3ccccc3c2)NC(=O)OC(C)(C)C)c1` gave a melting point of 84 to 86 °C.

In turn, `CCNn1cc(C(=O)O)c(=O)c2ccc(C)nc21` registered a melting point of 166 to 169 °C.

Regarding `COC(=O)c1cccc2[nH]nc(S(=O)(=O)NC(C)(C)C)c12`, the melting point fell in the range of 218 to 220 °C.

Consider `COc1cc(Nc2nc3c(s2)CCCC3c2ccccc2)ccc1C(N)=O` (centres undefined), for which the melting point fell in the range of 243 to 246 °C.

For `CCOC(=O)C(CCc1ccccc1)CC1(C(=O)O)CCCC1` (centres undefined), the melting point lay within 68 to 69 °C.

As to `CC(C)(C)c1cc(SCCSCC(=O)O)cc(C(C)(C)C)c1O`, the melting point came out at 86 °C.

The molecule `Oc1ccc2c(C3CCCCC3)nsc2c1` displayed a melting point of 190 °C.

In turn, `O=C1CCCc2nc3ccccc3c(NCc3cccc(Cl)c3)c21` yielded a melting point of 138 to 140 °C.

Take `O=CNC1=NN(c2ccc(Cl)cc2)C(c2ccccc2)C1` (centres undefined): the melting point was in the range of 164 to 166 °C.

Molecule `CCCCCS(=O)(=O)NCC(C)Cc1ccc(OCCOC)cc1Oc1ncc(C(F)(F)F)cc1Cl` (centres undefined) showed a melting point of 80 to 82 °C.

With `N#CCCNC(=O)c1cccc(-c2ccc3c(c2)N(c2ccc(Cl)cc2Cl)CC3)c1`, the melting point fell in the range of 148 to 154 °C.

Molecule `O=C(O)c1cncc(-c2cnc3c(c2)N(Cc2cc(F)ccc2F)CCN3)c1` displayed a melting point of 255 to 260 °C.

Turning to `COc1cc2c(cc1C#N)C1(CO2)C(=O)N(Cc2ccccn2)c2ccccc21` (centres undefined), the melting point lay in the range of 187 to 189 °C.

`CSc1cc(-c2nc(=O)c3ccccc3s2)ccn1` showed a melting point of 173 to 174 °C.

`CCCCn1c2c(c(=O)n(CCCC)c1=O)CN(S(=O)(=O)Cc1ccccc1)N2` showed a melting point of 137 to 140 °C.

`CC#CCOc1ccc(S(=O)(=O)C2(C(=O)O)CCN(Cc3ccc(C#N)cc3)CC2)cc1` came in with a melting point of 110 °C.

As to `COC(=O)C[C@H](O)C[C@H](O)C=Cc1c(-c2ccc(F)cc2)c(-c2ccccc2)c(C(=O)NCc2ccc(F)cc2)n1C(C)C`, the melting point was 68 to 69 °C.

In the case of `CNc1c(OC)cc(C(=O)CS(C)(=O)=O)cc1OC`, the melting point was in the range of 98 to 99 °C.

As for `O=C(CCl)Nc1ccc(C(=O)N2CCc3cc(S(=O)(=O)n4cc(-c5ccccc5)[nH]c4=O)ccc32)cc1`, the melting point fell in the range of 188 to 189 °C.

For the molecule `COc1cc(C2c3cc4c(cc3C(O)CC2C(=O)O)OCO4)cc(OC)c1OC` (centres undefined), the melting point is 181 to 182 °C.

Turning to `CCn1c(C)nc2cc(C(F)(F)F)c(OC)c([N+](=O)[O-])c21`, the melting point was in the range of 84 to 85.5 °C.

Take `Clc1ccc(OCc2ccccc2)cn1`: the melting point was under 50 °C.

For the molecule `CCOC(=O)Cc1c(Br)cnc2c([N+](=O)[O-])cccc12`, the melting point lay within 163 to 164 °C.

Turning to `CC(=O)c1c(C)[nH]c(-c2ccncc2)c1C`, the melting point was 205 to 207 °C.

`CCCCCCNP(N)(N)=S` registered a melting point of 65 to 70 °C.

With `CSc1ccc(C[C@@H](NC(=O)OCc2ccccc2)[C@H](O)C(=O)O)cc1`, the melting point lay in the range of 174 to 177 °C.

On to `COC(=S)C(C)=CNc1ccc(OC)c(Cl)c1`, for which the melting point was 110 to 112 °C.

For the molecule `O=C(NCC1(c2ccccc2)CCCCC1)Nc1ccc(Cl)c(Cl)c1`, the melting point was in the range of 180 to 181 °C.

`Cc1cccc(C2=NC(C)(C(C)C)C(=S)N2)c1` (centres undefined) displayed a melting point of 122 to 123 °C.

Molecule `CCc1nc(C(=O)O)c(C(=O)O)[nH]1` yielded a melting point of 265 to 268 °C.

As to `COc1ccc2c(c1)cc(C=O)n2S(=O)(=O)c1ccccc1`, the melting point is 123 to 124 °C.

`O=C1C(c2ccccc2)=C(c2ccccc2)C(=O)N1c1ccccc1C(F)(F)F` showed a melting point of 152 to 153 °C.

Consider `CC(=O)N1CCC(C)(C)C2=C1CCc1cc(Cl)ccc12`, for which the melting point is 126 to 127 °C.

As for `Cn1c(=O)n(Cc2ccc(F)cc2)c(=O)c2cc(C(=O)c3nc(-c4cccnc4)c4ccccn34)ccc21`, the melting point was 207 °C.

Turning to `Cc1cccc(C2OCC(OCc3ccccc3)CO2)c1` (centres undefined), the melting point fell in the range of 68 to 70 °C.

On to `O=C1OC(=Cc2c[nH]c3ccccc23)C(=O)N1Cc1cc(C(F)(F)F)cc(C(F)(F)F)c1`, for which the melting point was 145 to 146 °C.

The molecule `Cc1cc(-c2ccc(C(F)(F)F)cc2)cc(-c2ccnc(-c3cccc(S(N)(=O)=O)c3)c2)n1` came in with a melting point of over 250 °C.

On to `Oc1cc(Oc2ncc(C(F)(F)F)cc2Cl)ccc1Br`, for which the melting point fell in the range of 124 to 127 °C.

`CCOc1cc2ncc(C#N)c(Nc3ccc(OCc4ccccc4)c(Cl)c3)c2cc1NC(=O)CC(CN1CCCC1)N1CCCC1` (centres undefined): the melting point lay within 85 to 87 °C.

`Cc1cc(C)cc(Oc2[nH]c(=O)[nH]c(=O)c2C(C)C)c1` had a melting point of 91 to 92 °C.

In turn, `COc1ccc(C(=O)Nc2cccnc2)c2c1oc1ccc(NC(C)=O)cc12` came in with a melting point of over 250 °C.

One may read the melting point as the temperature of the solid-liquid transition.
